Data reported in paper PMC8348780, “Preparation and Evaluation of Novel Folate Isonitrile ^99mTc Complexes as Potential Tumor Imaging Agents to Target Folate Receptors” (Molecules, 2021).

Experiments:
[1] = Partition coefficient, 1-octanol / phosphate buffer pH 7.4; type: physicochemical; settings: 1-octanol / phosphate buffer 0.025 M
Procedure: The partition coefficient was measured as follows: 1.9 mL of phosphate buffer solution (0.025 M, pH 7.4), 2.0 mL of 1-octanol, and 0.1 mL of ^99mTc-CN5FA or ^99mTc-CNPFA solution were added to the centrifuge tube, and the sample was swirled for 5 min and centrifuged for 5 min (3000 r/min). Then, the radioactivity counts of the two phases were measured by taking 0.1 mL from the organic phase and the water phase. The partition coefficient P was calculated. The final partition coefficient was expressed as log P ± SD.

KB tumor-bearing mice [2] = assay: SPECT/CT imaging study in KB tumor-bearing mice; type: in vivo, BALB/c nude mice; settings: 2 h post injection, about 18.5 MBq i.v.
Procedure: The SPECT/CT imaging experiments were also divided into a normal group and an inhibition group (n = 3). The labeled solution (about 18.5 MBq) was injected into the tail vein of nude mice bearing KB tumor. The inhibition group was injected with 100 µg FA (about 4 × 10^4 µg/kg) 30 min in advance. After 2 h, the SPECT/CT scan was performed in anesthetized mice by using 1.5% isoflurane. The SPECT acquisition (peak value 140 keV, 20% width, 90° rotation, MMP 919 Collimator) was performed after 4 min of CT scanning (512 views, 2 × 2 binding, 75 kV, exposure time 230 ms). SPECT/CT images were made using HiSPECT software and vivoquant 2.5 software.

KB tumor-bearing mice [3] = assay: Biodistribution study in KB tumor-bearing mice; type: in vivo, BALB/c nude mice; settings: for Tumor uptake: KB tumor
Procedure: The biodistribution experiments were divided into normal groups and inhibition groups (n = 3), in which the inhibition group was injected with inhibitor (about 4 × 10^4 µg/kg) 30 min in advance. The KB tumor-bearing mice were decapitated 30 and 120 min after the tail vein injection of 0.1 mL labeled solution (about 7.4 × 10^4 Bq). The heart, liver, lung, kidney, spleen, stomach, bone, muscle, intestine, tumor, blood, and other related tissues and organs were wiped clean and weighed, and the radioactivity count was measured. Each tissue per gram of injection dose (%ID/g) was calculated.

[4] = biological target: T1, folate receptor (KB cells) (Homo sapiens, UniProt P15328); assay: In vitro competitive binding with KB cells; settings: 37 °C, 2 h, competitive binding with inhibitor
T1 construct: endogenous in cells; host or cells: KB cells
T1 sequence (P15328 25-257): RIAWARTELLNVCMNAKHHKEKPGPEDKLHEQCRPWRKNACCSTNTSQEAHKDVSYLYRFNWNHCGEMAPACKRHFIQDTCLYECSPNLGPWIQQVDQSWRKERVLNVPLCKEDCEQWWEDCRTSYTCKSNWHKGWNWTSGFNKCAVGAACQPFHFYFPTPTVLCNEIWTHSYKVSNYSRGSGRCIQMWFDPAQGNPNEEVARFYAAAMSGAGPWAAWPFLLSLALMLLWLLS
Procedure: KB cells were cultured with FFRPMI 1640 medium 24 h in advance on a 48-well plate with 5 × 10^4 cells per well. The labeling solution was diluted to 5 μCi/mL with the same medium after growing, and the inhibitor was prepared at different concentrations. The 48-well plates were divided into eight groups, and each group was incubated with 100 μL of inhibitor solution, 100 μL of diluted labeled solution (5 μCi/mL), and 200 μL of medium at 37 °C for 2 h.
After removing the cell plate from the incubator, the medium was removed, and the cells were washed with PBS (0.1 M, pH 7.4). The washed cells were lysed with NaOH (1 M) for 5 min. Pyrolysates were collected in the hoses, and the radioactivity count of each hose was measured by a γ-counter. The data were analyzed with GraphPad Prism 5.0 and nonlinearly fit to the log IC50 ± SD value.

[5] = Stability in saline / radiolabeling solution at room temperature (RCP by radio-HPLC); type: physicochemical; settings: 4 h
Procedure: (§1) The complexes were determined by ITLC/SG of the ACD system and radio-HPLC. The ITLC/SG trip was cut into 10 equal parts, and radioactive counting of ITLC strips was determined by a γ-counter. ITLC results of both complexes were as follows: in ACD solution, [^99mTc]Tc-CN5FA and [^99mTc]Tc-CNPFA stayed at the origin (Rf = 0–0.1), while ^99mTcO4^− (Rf = 0.9–1.0) and ^99mTcO2·nH2O (Rf = 0.8–1.0) were moved to the front. Radio-HPLC was analyzed by a mobile phase system consisting of 0.1% TFA water (solvent A) and 0.1% TFA acetonitrile (solvent B) with a gradient of 0−2 min 10% B, 2−5 min 10%−90% B, 10−20 min 90% B, and 20−25 min 90%−10% B (system B) at a flow rate of 1 mL/min. All experiments were performed in triplicate.
(§2) The stability of [^99mTc]Tc-CN5FA and [^99mTc]Tc-CNPFA in vitro was evaluated by measuring the RCP of the complexes. Stability in saline was achieved by holding the solution at room temperature for 4 h. Stability in the serum was achieved by mixing 100 μL of [^99mTc]Tc-CN5FA or [^99mTc]Tc-CNPFA with 200 μL of mouse serum at 37 °C for 4 h. After precipitation using acetonitrile, centrifugation, and concentration, the solutions were analyzed by radio-HPLC.

[6] = Stability in mouse serum at 37 °C (RCP by radio-HPLC); type: in vitro ADME; settings: 4 h
Procedure: as §1, §2

[7] = 2 h p.i., block: FA about 4 × 10^4 µg/kg 30 min in advance

[99Tc+].[C-]#[N+]CCOCCOCCOCCOCCC(=O)NCCNC(=O)CC[C@H](NC(=O)c1ccc(NCc2cnc3nc(N)[nH]c(=O)c3n2)cc1)C(=O)O.[C-]#[N+]CCOCCOCCOCCOCCC(=O)NCCNC(=O)CC[C@H](NC(=O)c1ccc(NCc2cnc3nc(N)[nH]c(=O)c3n2)cc1)C(=O)O.[C-]#[N+]CCOCCOCCOCCOCCC(=O)NCCNC(=O)CC[C@H](NC(=O)c1ccc(NCc2cnc3nc(N)[nH]c(=O)c3n2)cc1)C(=O)O.[C-]#[N+]CCOCCOCCOCCOCCC(=O)NCCNC(=O)CC[C@H](NC(=O)c1ccc(NCc2cnc3nc(N)[nH]c(=O)c3n2)cc1)C(=O)O.[C-]#[N+]CCOCCOCCOCCOCCC(=O)NCCNC(=O)CC[C@H](NC(=O)c1ccc(NCc2cnc3nc(N)[nH]c(=O)c3n2)cc1)C(=O)O.[C-]#[N+]CCOCCOCCOCCOCCC(=O)NCCNC(=O)CC[C@H](NC(=O)c1ccc(NCc2cnc3nc(N)[nH]c(=O)c3n2)cc1)C(=O)O [[^99mTc]Tc-CNPFA]
log P [1]: −2.28 ± 0.02 | Visualization of tumor lesions by SPECT/CT (KB tumor-bearing mice [2]): clearly visualized | T/B (tumor/blood ratio) (KB tumor-bearing mice [3]; 0.5 h p.i.): 1.02 | T/M (tumor/muscle ratio) (KB tumor-bearing mice [3]; 0.5 h p.i.): 2.82 | Blood uptake (KB tumor-bearing mice [3]; 0.5 h p.i., i.v., n = 3): 4.08 ± 0.54 %ID/g | Bone uptake (KB tumor-bearing mice [3]; 0.5 h p.i., i.v., n = 3): 1.77 ± 0.06 %ID/g | Heart uptake (KB tumor-bearing mice [3]; 0.5 h p.i., i.v., n = 3): 1.92 ± 0.06 %ID/g | Intestines uptake (KB tumor-bearing mice [3]; 0.5 h p.i., i.v., n = 3): 4.98 ± 1.57 %ID/g | Kidney uptake (KB tumor-bearing mice [3]; 0.5 h p.i., i.v., n = 3): 81.30 ± 4.69 %ID/g | Liver uptake (KB tumor-bearing mice [3]; 0.5 h p.i., i.v., n = 3): 15.84 ± 1.19 %ID/g | Lung uptake (KB tumor-bearing mice [3]; 0.5 h p.i., i.v., n = 3): 4.01 ± 0.30 %ID/g | Muscle uptake (KB tumor-bearing mice [3]; 0.5 h p.i., i.v., n = 3): 1.48 ± 0.07 %ID/g | Spleen uptake (KB tumor-bearing mice [3]; 0.5 h p.i., i.v., n = 3): 3.65 ± 0.72 %ID/g | Stomach uptake (KB tumor-bearing mice [3]; 0.5 h p.i., i.v., n = 3): 6.67 ± 0.73 %ID/g | Thyroid uptake (KB tumor-bearing mice [3]; 0.5 h p.i., i.v., n = 3): 0.08 ± 0.02 %ID | T/B (tumor/blood ratio) (KB tumor-bearing mice [3]; 2 h p.i.): 1.73 | T/M (tumor/muscle ratio) (KB tumor-bearing mice [3]; 2 h p.i.): 3.01 | Blood uptake (KB tumor-bearing mice [3]; [7]): 1.97 ± 0.34 %ID/g | Bone uptake (KB tumor-bearing mice [3]; [7]): 1.02 ± 0.10 %ID/g | Heart uptake (KB tumor-bearing mice [3]; [7]): 0.81 ± 0.12 %ID/g | Intestines uptake (KB tumor-bearing mice [3]; [7]): 1.70 ± 0.22 %ID/g | Kidney uptake (KB tumor-bearing mice [3]; [7]): 37.60 ± 2.46 %ID/g | Liver uptake (KB tumor-bearing mice [3]; [7]): 10.88 ± 1.03 %ID/g | Lung uptake (KB tumor-bearing mice [3]; [7]): 2.11 ± 0.28 %ID/g | Muscle uptake (KB tumor-bearing mice [3]; [7]): 0.51 ± 0.09 %ID/g | Spleen uptake (KB tumor-bearing mice [3]; [7]): 3.30 ± 0.66 %ID/g | Stomach uptake (KB tumor-bearing mice [3]; [7]): 2.18 ± 0.22 %ID/g | Thyroid uptake (KB tumor-bearing mice [3]; [7]): 0.05 ± 0.01 %ID | Blood uptake (KB tumor-bearing mice [3]; 2 h p.i., i.v., n = 3): 1.46 ± 0.03 %ID/g | Bone uptake (KB tumor-bearing mice [3]; 2 h p.i., i.v., n = 3): 0.79 ± 0.11 %ID/g | Heart uptake (KB tumor-bearing mice [3]; 2 h p.i., i.v., n = 3): 1.30 ± 0.09 %ID/g | Intestines uptake (KB tumor-bearing mice [3]; 2 h p.i., i.v., n = 3): 1.60 ± 0.24 %ID/g | Kidney uptake (KB tumor-bearing mice [3]; 2 h p.i., i.v., n = 3): 80.25 ± 1.23 %ID/g | Liver uptake (KB tumor-bearing mice [3]; 2 h p.i., i.v., n = 3): 10.39 ± 0.23 %ID/g | Lung uptake (KB tumor-bearing mice [3]; 2 h p.i., i.v., n = 3): 2.04 ± 0.06 %ID/g | Muscle uptake (KB tumor-bearing mice [3]; 2 h p.i., i.v., n = 3): 0.84 ± 0.04 %ID/g | Spleen uptake (KB tumor-bearing mice [3]; 2 h p.i., i.v., n = 3): 2.85 ± 0.26 %ID/g | Stomach uptake (KB tumor-bearing mice [3]; 2 h p.i., i.v., n = 3): 3.65 ± 0.75 %ID/g | Thyroid uptake (KB tumor-bearing mice [3]; 2 h p.i., i.v., n = 3): 0.06 ± 0.01 %ID | Tumor uptake (KB tumor-bearing mice [3]; 0.5 h p.i., i.v., n = 3): 4.18 ± 0.36 %ID/g | Tumor uptake (KB tumor-bearing mice [3]; [7]): 1.62 ± 0.08 %ID/g | Tumor uptake (KB tumor-bearing mice [3]; 2 h p.i., i.v., n = 3): 2.53 ± 0.12 %ID/g | IC50 [4]: 3.8 ± 0.07 nM | RCP after incubation [5]: more than 95% | RCP after incubation [6]: more than 95%
